Like-named read-outs stand apart in the source and are kept apart here.
Legend:
Rho-A = Rho-A (Homo sapiens (Human), UniProt P61586); test: Ras GTP Binding Domain Inhibition Assay, Rho-A
Description: A Ras Superfamily Activity Assay (as disclosed in International Application No. PCT/US2018/038613, filed Jun. 20, 2018, which is incorporated by reference in its entirety) was used as a specific assay to evaluate compounds against the following for the following Ras Superfamily proteins: KRas wild type, KRas Q61H mutant, KRas G12C mutant, KRas G12D mutant, Rac-1, and Rho-A.
Buffer-I: • 25 mM Tris-HCl, pH 7.4 • 27 mM KCl • 137 mM NaCl • 1 mM MgCl2 • 1 mM DTT
Buffer-II: • 50 mM Tris-HCl, pH 7.0 • 1 mM MgCl2 • 1 mM DTT
The small GTPases proteins: KRas wild type. KRas Q61H mutant, KRas G12C mutant, KRas G12D mutants, Rac-1, and Rho-A were expressed as His-tagged proteins. In addition, the Guanosine nucleotide Exchange Factor (GEF) Sos protein (residues 556-1049) was expressed as a His-tagged protein. In cells, the guanine nucleotide exchange factor Sos protein promotes activation of Ras proteins by stimulating an exchange of GDP for GTP. The inclusion of Sos to the Ras GTP binding domain inhibition assay may be considered as an alternative representation of physiological cellular conditions for evaluating the inhibitory activity of some of the tested small molecules.
For the assay, all purified small GTPases proteins were diluted in Buffer-I or Buffer-II to a final concentration of 10-30 μg/mL. 200 μL of each diluted protein was added to a nickel-coated 96-well plate and incubated overnight at 4° C. Then the protein solution was discarded and 200 μL of Buffer-I or Buffer-II was added to each well in the presence of 1% DMSO. Compounds to be tested were added to the protein-coated wells at final concentration of 20 μM, and incubated for 3 hours at room temperature with and without 10-30 μg/mL of Sos added to the final hour of the incubation. When performing IC50 measurements a serial dilution of all tested concentrations was added. Then Cy3-GTP or Cy5-GTP was added to each well to a final concentration of 100 nM. The labeled GTP was incubated for 45 minutes at room temperature. Following GTP incubation, wells were washed 3× in Buffer-I or Buffer-II and 200 μL of Buffer-I or Buffer-II was added to each well. Following washes, the amount of bound labeled-GTP was measured using a SpectraMax M3 (Molecular Devices).

MAPK p38 = MAPK p38 Activation Assay in Panc-1 (western blot); assay type: cell-based, Human; set-up: key: Y = yes; N = No; details: at 10 μM
Description: (§1) Cell lines: Human tumor-derived pancreatic cancer cell line Panc-1 and mouse muscle myoblast C2C12 were purchased from American Type Culture Collection and grown in complete DMEM-High Glucose, supplemented with penicillin (100 U/mL), streptomycin (100 μg/mL), and 10% heat-inactivated FBS at 37° C. in a humidified incubator with 5% CO2.
(§2) Method: Cells were plated at 350000 cells/well density in a 12-well plate, allowed 3 hours to adhere to the plate, then starved in the appropriate medium in the presence of 0.5% FBS overnight. The small molecules to be tested were added to the cells in the final concentration of 10 μM in the presence of 0.3% DMSO for 3 hours incubation at 37° C. For IC50 value determination, serial dilutions of compounds were added to cells under the same conditions. Next, Panc-1 cells were stimulated with 10 ng/ml TGF-b1 for 1 hour, and C2C12 cells were stimulated with 10 ng/ml TGF-b1 for 20 minutes (recombinant human TGF-b1, R&D Systems). After stimulation cells were lysed with lysis buffer containing 1% Triton X-100, EDTA, and Halt™ Protease & Phosphatase Inhibitor Cocktail (Thermo Scientific). Protein concentration was assessed by BCA protein assay (Thermo Scientific). Phosphorylation level of MAPK p38 was determined by western blot.
(§3) Western blot protocol: Equal amounts of protein (15-50 μg) were separated by SDS-PAGE and transferred to nitrocellulose membranes (Invitrogen by Thermo Fisher Scientific). The membrane was stained with Ponceau S Stain (Boston BioProducts) to verify uniform protein loading. Membranes were blocked with 10% milk and phosphorylation levels of Smad2/Smad3 were assessed by incubating overnight at 4° C. with the following antibody: Phospho-p38 MAPK (Thr180/Tyr182), from Cell Signaling Technology. Then the membranes were incubated with HRP-conjugated secondary antibody (Jackson Immunoresearch, West Grove, PA). Bands were incubated in Amersham ECL Prime Western Blotting Detection Reagent (GE Healthcare) and visualized using the ChemiDoc MP imaging system (Bio-Rad).

JNK = JNK Activation Assay in Panc-1 (western blot); assay type: cell-based, Human; set-up: key: Y = yes; N = No; details: at 10 μM
Description: as §1
as §2, with “JNK” for “MAPK p38”
as §3, with “Smad2, Smad3, INK and p38” for “Smad2/Smad3”, “Phospho-SAPK/JNK (Thr183/Tyr185),” for “Phospho-p38 MAPK (Thr180/Tyr182),”

[1] = + SOS, read-out: Rho-A + SOS: % inh.
[2] = without SOS, read-out: Rho-A: % inh.

Chain of Rho-A (P61586 whole entry, species assumed, the tested form may be a part): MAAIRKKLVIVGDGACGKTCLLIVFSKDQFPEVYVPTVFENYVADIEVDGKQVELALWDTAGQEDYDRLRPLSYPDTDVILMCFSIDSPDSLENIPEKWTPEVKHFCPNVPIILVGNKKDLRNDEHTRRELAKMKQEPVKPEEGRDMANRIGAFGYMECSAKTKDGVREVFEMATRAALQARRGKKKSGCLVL

## CO[C@H]1CC[C@@H](Nc2nc(-c3nccn3C)nc3sc(-c4ccn(C(C)C)n4)c(C)c23)C1 (racemic) [Compound 12, rac-6-(1-Isopropyl-1H-pyrazol-3-yl)-N-((1R,3S)-3-methoxycyclopentyl)-5-methyl-2-(1-methyl-1H-imidazol-2-yl)thieno[2,3-d]pyrimidin-4-amine]
Rho-A; [1]
  inhibition at 20 µM: 76 to 100%
Rho-A; [2]
  inhibition at 20 µM: 76 to 100%
MAPK p38
  Activation of MAPK p38 in PANC-1: Y
JNK
  Activation of JNK in PANC-1: Y

## COc1cc(-c2sc3nc(-c4nccn4C)nc(N[C@@H]4CC[C@@H](OC)C4)c3c2-c2ccccc2)ccn1 (racemic) [Compound 47, N-((1R,3R)-3-Methoxycyclopentyl)-6-(2-methoxypyridin-4-yl)-2-(1-methyl-1H-imidazol-2-yl)-5-phenylthieno[2,3-d]pyrimidin-4-amine]
Rho-A; [2]
  inhibition at 20 µM: 46 to 75%
MAPK p38
  Activation of MAPK p38 in PANC-1: N
JNK
  Activation of JNK in PANC-1: Y

## COCCCOc1nc(-c2nccn2C)nc2sc(-c3ccn(C(C)C)n3)c(-c3ccccc3)c12 [Compound 37, 6-(1-Isopropyl-1H-pyrazol-3-yl)-4-(3-methoxypropoxy)-2-(1-methyl-1H-imidazol-2-yl)-5-phenylthieno[2,3-d]pyrimidine]
Rho-A; [2]
  inhibition at 20 µM: 0%
MAPK p38
  Activation of MAPK p38 in PANC-1: Y
JNK
  Activation of JNK in PANC-1: N

## COCCNc1nc(-c2cn(C)cn2)nc2sc(-c3cccc(OC)c3Cl)c(-c3ccc(OC)cc3)c12 [Compound 8, 6-(2-Chloro-3-methoxyphenyl)-N-(2-methoxyethyl)-5-(4-methoxyphenyl)-2-(1-methyl-1H-imidazol-4-yl)thieno[2,3-d]pyrimidin-4-amine]
Rho-A; [1]
  inhibition at 20 µM: 46 to 75%
Rho-A; [2]
  inhibition at 20 µM: 46 to 75%
MAPK p38
  Activation of MAPK p38 in PANC-1: Y
JNK
  Activation of JNK in PANC-1: Y

## COCCCNc1nc(-c2nccn2C)nc2sc(-c3ccccc3)c(-c3ccccc3)c12 [Compound 3, N-(3-Methoxypropyl)-2-(1-methyl-1H-imidazol-2-yl)-5,6-diphenylthieno[2,3-d]pyrimidin-4-amine]
Rho-A; [2]
  inhibition at 20 µM: 46 to 75%
MAPK p38
  Activation of MAPK p38 in PANC-1: Y
JNK
  Activation of JNK in PANC-1: Y

## Cc1c(-c2ccn(C(C)C)n2)sc2nc(-c3nccn3C)nc(NCCN3CCS(=O)(=O)CC3)c12 [Compound 23, 4-(2-((6-(1-Isopropyl-1H-pyrazol-3-yl)-5-methyl-2-(1-methyl-1H-imidazol-2-yl)thieno[2,3-d]pyrimidin-4-yl)amino)ethyl)thiomorpholine 1,1-dioxide]
Rho-A; [2]
  inhibition at 20 µM: 46 to 75%
MAPK p38
  Activation of MAPK p38 in PANC-1: Y
JNK
  Activation of JNK in PANC-1: N

## COCCNc1nc(-c2nccn2C)nc2sc(-c3cccc(OC)c3Cl)c(-c3ccc(OC)cc3)c12 [Compound 7, 6-(2-Chloro-3-methoxyphenyl)-N-(2-methoxyethyl)-5-(4-methoxyphenyl)-2-(1-methyl-1H-imidazol-2-yl)thieno[2,3-d]pyrimidin-4-amine]
Rho-A; [1]
  inhibition at 20 µM: 46 to 75%
Rho-A; [2]
  inhibition at 20 µM: 26 to 45%
MAPK p38
  Activation of MAPK p38 in PANC-1: Y
JNK
  Activation of JNK in PANC-1: Y

## COCCn1ccc(-c2sc3nc(-c4nccn4C)nc(NC[C@H]4CC[C@H]4COC)c3c2C)n1 (racemic) [Compound 38, rac-6-(1-(2-Methoxyethyl)-1H-pyrazol-3-yl)-N-(((1S,2R)-2-(methoxymethyl)cyclobutyl)methyl)-5-methyl-2-(1-methyl-1H-imidazol-2-yl)thieno[2,3-d]pyrimidin-4-amine]
Rho-A; [2]
  inhibition at 20 µM: 26 to 45%
MAPK p38
  Activation of MAPK p38 in PANC-1: Y
JNK
  Activation of JNK in PANC-1: Y

## COc1cccc(Nc2nc(-c3nccn3C)nc3sc(-c4ccn(C(C)C)n4)c(C)c23)n1 [Compound 18, 6-(1-Isopropyl-1H-pyrazol-3-yl)-N-(6-methoxypyridin-2-yl)-5-methyl-2-(1-methyl-1H-imidazol-2-yl)thieno[2,3-d]pyrimidin-4-amine]
Rho-A; [2]
  inhibition at 20 µM: 76 to 100%
MAPK p38
  Activation of MAPK p38 in PANC-1: Y
JNK
  Activation of JNK in PANC-1: Y

## COCCO[C@H]1CC[C@@H](Nc2nc(-c3nccn3C)nc3sc(-c4ccn(C(C)C)n4)c(C)c23)C1 (racemic) [Compound 20, rac-6-(1-Isopropyl-1H-pyrazol-3-yl)-N-((1R,3S)-3-(2-methoxyethoxy)cyclopentyl)-5-methyl-2-(1-methyl-1H-imidazol-2-yl)thieno[2,3-d]pyrimidin-4-amine]
Rho-A; [2]
  inhibition at 20 µM: 46 to 75%
MAPK p38
  Activation of MAPK p38 in PANC-1: Y
JNK
  Activation of JNK in PANC-1: Y

## COc1cccc(-c2sc3nc(-c4nccn4C)nc(N[C@H]4C[C@H](OC)C4)c3c2-c2ccccc2)c1F [Compound 40, 6-(2-Fluoro-3-methoxyphenyl)-N-((1r,3r)-3-methoxycyclobutyl)-2-(1-methyl-1H-imidazol-2-yl)-5-phenylthieno[2,3-d]pyrimidin-4-amine]
Rho-A; [2]
  inhibition at 20 µM: 26 to 45%
MAPK p38
  Activation of MAPK p38 in PANC-1: Y
JNK
  Activation of JNK in PANC-1: Y

## COCCNc1nc(-c2nccn2C)nc2sc(-c3ccccc3)c(-c3ccccc3)c12 [Compound 1, N-(2-Methoxyethyl)-2-(1-methyl-1H-imidazol-2-yl)-5,6-diphenylthieno[2,3-d]pyrimidin-4-amine]
Rho-A; [2]
  inhibition at 20 µM: 46 to 75%
MAPK p38
  Activation of MAPK p38 in PANC-1: N
JNK
  Activation of JNK in PANC-1: Y

## COc1cccc(Nc2nc(-c3nccn3C)nc3sc(-c4ccn(C(C)C)n4)c(C)c23)c1 [Compound 17, 6-(1-Isopropyl-1H-pyrazol-3-yl)-N-(3-methoxyphenyl)-5-methyl-2-(1-methyl-1H-imidazol-2-yl)thieno[2,3-d]pyrimidin-4-amine]
Rho-A; [2]
  inhibition at 20 µM: 46 to 75%
MAPK p38
  Activation of MAPK p38 in PANC-1: Y
JNK
  Activation of JNK in PANC-1: Y

## COc1nccc(-c2sc3nc(-c4nccn4C)nc(N[C@H]4C[C@H](OC)C4)c3c2-c2ccccc2)c1F [Compound 45, 6-(3-Fluoro-2-methoxypyridin-4-yl)-N-((1r,3r)-3-methoxycyclobutyl)-2-(1-methyl-1H-imidazol-2-yl)-5-phenylthieno[2,3-d]pyrimidin-4-amine]
Rho-A; [2]
  inhibition at 20 µM: 46 to 75%
MAPK p38
  Activation of MAPK p38 in PANC-1: N
JNK
  Activation of JNK in PANC-1: Y

Reference: US20240124483A1, “Methods for the Treatment of Fibrotic Disease” (SHY Therapeutics, LLC, priority 2021, published 2024)
